In patent US3933793A, “Therapeutically active 2-aminoalkylthio-3H-1.5-benzodiazepines and process for preparing them” (Recordati S.A. Chemical and Pharmaceutical Company, priority 1971, dated 1976):
In brackets after ≈: the same amount, converted by molar mass. Where a name gives a salt, the structure may show the parent alone.

Tests used:
[1] = test system: influenza A virus (PR8 strain); format: in vivo; details: 0.5 MTD in 10 ml buffered saline with virus, 1 hour at 37°C
[2] = test system: Bacillus subtilis ATCC 9466; experiment: Antibacterial activity, minimum inhibitory concentration; details: ATCC9466, 18 h, read-out: minimum inhibitory concentration, B. subtilis
Protocol: (§1) The antibacterial activity of some of the 3H-1,5-benzodiazepines having the general formula I was tested on the following microorganisms:
(§2) Escherichia coli 100, Bacillus subtilis ATCC 9466, Micrococcus pyogenes SG-511, grown in Difco nutritive gelatin; Streptococcus pyogenes A 88 grown in Difco "Brain heart infusion agar" gelatin with 5 percent difibrinated Guinea pig blood.
(§3) The results were read after 18 hours incubation at 35°-37°C.

[3] = test system: Escherichia coli 100; experiment: as above; details: Escherichia coli, 100, 18 h, read-out: minimum inhibitory concentration, B. coli
Protocol: as §1, §2, §3

[4] = test system: Micrococcus pyogenes SG-511; experiment: as above; details: Staphylococcus aureus, SG511, 18 h, read-out: minimum inhibitory concentration, M. pyogenes
Protocol: as §1, §2, §3

[5] = test system: Streptococcus pyogenes A 88; experiment: as above; details: A88, 18 h, read-out: minimum inhibitory concentration, S. pyogenes
Protocol: as §1, §2, §3

| SMILES | APR8: difference between logarithms of EID95 of controls and of treated eggs [1] | MIC [2] | MIC [3] | MIC [4] | MIC [5] |
| --- | --- | --- | --- | --- | --- |
| CC[N+](C)(CC)CCSC1=Nc2ccccc2N=C(c2ccc(Oc3ccccc3)cc2)C1 [Compound 28, 2,beta,N-diethylaminoethylthio-4,p-phenoxyphenyl-3H-1,5-benzodiazepine iodomethylate] | 1 | – | – | – | – |
| CC[N+](C)(CC)CCSC1=Nc2ccccc2N=C(c2ccc(Sc3ccccc3)cc2)C1 [Compound 30, 2,beta,N-diethylaminoethylthio-4,p-phenylthio-phenyl-3H-1,5-benzodiazepine iodomethylate] | 1 | 10 µg/mL | – | – | – |
| CC[N+](CC)(CCSC1=Nc2ccccc2N=C(c2ccc(Sc3ccccc3)cc2)C1)Cc1ccccc1 [Compound 31, 2,beta,N-diethylaminoethylthio-4,p-phenylthio-phenyl-3H-1,5-benzodiazepine bromobenzylate] | > 3 | 10 µg/mL | – | – | – |
| CN1CCN(CCSC2=Nc3ccccc3N=C(c3ccc(Sc4ccccc4)cc3)C2)CC1 [Compound 34, 2,beta,N(N'-methyl)piperazinoethylthio-4,p-phenylthiophenyl-3H-1,5-benzodiazepine citrate] | > 3 | 40 µg/mL | – | – | – |
| C[N+]1(C)CCN(CCSC2=Nc3ccccc3N=C(c3ccc(Sc4ccccc4)cc3)C2)CC1 [Compound 35, 2,beta,N(N'-methyl)piperazinoethylthio-4,p-phenylthiophenyl-3H-1,5-benzodiazepine monoiodomethylate] | 2 | 10 µg/mL | – | – | – |
| C[N+]1(CCCSC2=Nc3ccccc3N=C(c3ccc(Sc4ccccc4)cc3)C2)CCCC1 [Compound 38, 2,gamma,N-pyrrolidinopropylthio-4,p-phenylthiophenyl-3H-1,5-benzodiazepine iodomethylate] | 3 | 10 µg/mL | 160 µg/mL | 2.5 µg/mL | 10 µg/mL |
| CCN(CC)CCCSC1=Nc2ccccc2N=C(c2ccc(Sc3ccccc3)cc2)C1 [Compound 39, 2,gamma,N-diethylaminopropylthio-4,p-phenylthiophenyl-3H-1,5-benzodiazepinecitrate] | 3 | 10 µg/mL (≈ 21.1 µM) | – | – | – |
| CC[N+](C)(CC)CCCSC1=Nc2ccccc2N=C(c2ccc(Sc3ccccc3)cc2)C1 [Compound 40, 2,gamma,N-diethylaminopropylthio-4,p-phenylthiophenyl-3H-1,5-benzodiazepineiodomethylate] | 1 | 5 µg/mL | 5 µg/mL | – | 5 µg/mL |
| CN(C)CCCSC1=Nc2ccccc2N=C(c2ccc(Sc3ccccc3)cc2)C1 [Compound 41, 2,gamma,N-dimethylaminopropylthio-4,p-phenylthiophenyl-3H-1,5-benzodiazepine.HCl] | > 3 | 10 µg/mL | – | – | 1.25 µg/mL |
| C[N+](C)(C)CCCSC1=Nc2ccccc2N=C(c2ccc(Sc3ccccc3)cc2)C1 [Compound 42, 2,gamma,N-dimethylaminopropylthio-4,p-phenylthiophenyl-3H-1,5-benzodiazepine iodomethylate] | 3 | 40 µg/mL | 80 µg/mL | – | – |
| C[N+]1(CCSC2=Nc3ccccc3N=C(c3ccc(Sc4ccccc4)cc3)C2)CCCC1 [Compound 44, 2, beta,N-pyrrolidinoethylthio-4,p-phenylthiophenyl-3H-1,5-benzodiazepine iodomethylate] | 2 | 40 µg/mL | 160 µg/mL | – | – |
| C[N+](C)(C)CCSC1=Nc2ccccc2N=C(c2ccc(Sc3ccccc3)cc2)C1 [Compound 46, 2,beta,N-dimethylaminoethylthio-4,p-phenylthiophenyl-3H-1,5-benzodiazepine iodomethylate] | 2 | 20 µg/mL | 160 µg/mL | – | – |
| C[N+]1(CCSC2=Nc3ccccc3N=C(c3ccc(Sc4ccccc4)cc3)C2)CCCCC1 [Compound 48, 2,beta,N-piperidinoethylthio-4,p-phenylthiophenyl-3H-1,5-benzodiazepine iodomethylate] | > 4 | 10 µg/mL | 80 µg/mL | – | – |
| C[N+]1(CCSC2=Nc3ccccc3N=C(c3ccc(Sc4ccccc4)cc3)C2)CCOCC1 [Compound 50, 2,beta,N-morpholinoethylthio-4,p-phenylthiophenyl-3H-1,5-benzodiazepine iodomethylate] | 2 | 10 µg/mL | 160 µg/mL | – | – |
| C[N+]1(CCSC2=Nc3ccccc3N=C(c3ccccc3)C2)CCCC1 [Compound 58] | 1 | – | – | – | – |
| C[N+]1(CCSC2=Nc3ccccc3N=C(c3ccccc3)C2)CCOCC1 [Compound 62] | 1 | – | – | – | – |
| CN1CCN(CCSC2=Nc3ccccc3N=C(c3ccccc3)C2)CC1 [Compound 63] | 1 | – | – | – | – |
| CCN(CC)CCSC1=Nc2ccccc2N=C(c2ccc(C)cc2)C1 [Compound 66] | 1 | 40 µg/mL (≈ 109 µM) | – | – | 80 µg/mL (≈ 219 µM) |
| CCCCSc1ccc(C2=Nc3ccccc3N=C(SCC[N+](C)(CC)CC)C2)cc1 [Compound 82] | – | 2.5 µg/mL | 10 µg/mL | 2.5 µg/mL | 2.5 µg/mL |
